Melting point and mortality data for 29 compounds are collected here from US9615576B2, “Pesticidal compositions and processes related thereto” (Dow AgroSciences LLC, priority 2011, dated 2017).

Usually melting point stands for the temperature, or range, at which the solid turns liquid. For orientation: mortality means the share of the test organisms that died.

Data set [1] concerns Corn Earworm (CEW) (Helicoverpa zea). The data set is described as follows: Bioassays on Corn Earworm (CEW), 128-well diet tray assay. The data set is classed as in vivo. The settings on record: 168 h, 50 μg/cm^2 test compound on artificial diet, second instar larvae, 25° C., five to seven days, average of eight wells, read-out: CEW Rating (% mortality). In a few lines:
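Second-instar larvae (one to five per well) placed on artificial diet treated with 50 μg/cm^2 compound in 90:10 acetone-water, dried; eight wells per compound. Held at 25° C, 14:10 light-dark, five to seven days; percent mortality averaged over wells.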

Data set [2] concerns Beet Armyworm (BAW) (Spodoptera exigua). Kind of data set: Bioassays on Beet Armyworm (BAW), 128-well diet tray assay. The class given is in vivo. The settings on record: 168 h, 50 μg/cm^2 test compound on artificial diet, second instar larvae, 25° C., five to seven days, average of eight wells, read-out: BAW Rating (% mortality). The essentials:
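Second-instar larvae (1–5 per well) on artificial diet surface-treated with 50 μg/cm^2 compound applied in 90:10 acetone-water and dried; eight wells per compound. Held 5–7 days at 25° C., 14:10 light-dark. Percent mortality scored per well and averaged over eight wells.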

Regarding `NC(=O)c1ccc(/C=C/C(c2cc(Cl)cc(Cl)c2)C(F)(F)F)cc1` (stereo not drawn) [AC2], the melting point was in the range of 110 to 112 °C. For the compound `Cc1cc(/C=C/C(c2cc(Cl)cc(Cl)c2)C(F)(F)F)ccc1C(=O)N[C@H]1C[S@@+]([O-])C1` (stereo partly drawn) [AC82], the mortality at 50 µg/cm2 in data set [1] and in data set [2] was 50 to 100% throughout. On to `Cc1cc(/C=C/C(c2cc(Cl)cc(Cl)c2)C(F)(F)F)ccc1C(=O)NCC(=O)NNC(=O)C1CC1` (stereo not drawn) [AC47], for which the mortality at 50 µg/cm2 in data set [1] and in data set [2] was 0% in each case. For the compound `Nc1cc(/C=C/C(c2cc(Cl)cc(Cl)c2)C(F)(F)F)ccc1-n1cncn1` (stereo not drawn) [DC55], the mortality at 50 µg/cm2 in data set [1] and in data set [2] was 0% in each case. Take `Cc1cc(/C=C/C(c2cc(Cl)c(F)c(Cl)c2)C(F)(F)F)ccc1C(=O)NCc1cc(Cl)ccn1` (stereo not drawn) [AC77]: the mortality at 50 µg/cm2 in data set [1] and in data set [2] was 50 to 100% each time. Take `Fc1ccc(C(/C=C/c2ccc(-n3cncn3)cc2)C(F)(F)F)cc1` (stereo not drawn) [DC7]: the mortality at 50 µg/cm2 in data set [1] is 0%; in data set [2], 50 to 100%.

For `O=C(CC(F)(F)F)NCc1ccc(/C=C/C(c2cc(Cl)c(Cl)c(Cl)c2)C(F)(F)F)cc1Cl` (stereo not drawn) [CC10], the mortality at 50 µg/cm2 in data set [1] and in data set [2] was 50 to 100% each time. Regarding `N#CCN1CCC(NC(=O)c2ccc(/C=C/C(c3cc(Cl)c(Cl)c(Cl)c3)C(F)(F)F)cc2Br)CC1` (stereo not drawn) [AC107], the mortality at 50 µg/cm2 in data set [1] was in the range of 50 to 100%; in data set [2], 0 to 50%. Regarding `O=C(CC(F)(F)F)NOc1ccc(/C=C/C(c2cc(Cl)c(Cl)c(Cl)c2)C(F)(F)F)cc1` (stereo not drawn) [CC53], the mortality at 50 µg/cm2 in data set [1] and in data set [2] was 0% each time.

For the compound `CCOC(=O)c1cc(/C=C/C(c2cc(Cl)cc(Cl)c2)C(F)(F)F)ccc1-n1cncn1` (stereo not drawn) [DC60], the mortality at 50 µg/cm2 in data set [1] and in data set [2] was 50 to 100% in each case. With `O=C(C1CC1)N(Cc1ccccn1)Cc1ccc(/C=C/C(c2cc(Cl)c(Cl)c(Cl)c2)C(F)(F)F)cc1C(F)(F)F` (stereo not drawn) [CC29, (E)-N-(pyridin-2-ylmethyl)-N-(4-(4,4,4-trifluoro-3-(3,4,5-trichlorophenyl)but-1-enyl)-2-(trifluoromethyl)benzyl)cyclopropanecarboxamide], the mortality at 50 µg/cm2 in data set [1] and in data set [2] was 50 to 100% throughout. In the case of `CCc1cc(/C=C/C(c2cc(Cl)c(F)c(Cl)c2)C(F)(F)F)ccc1C(=O)NCc1ccc(Cl)nc1` (stereo not drawn) [AC72], the mortality at 50 µg/cm2 in data set [1] and in data set [2] was 50 to 100% in each case. For `COc1c(Cl)cc(C(/C=C/c2ccc(-n3cncn3)cc2)C(F)(F)F)cc1Cl` (stereo not drawn) [DC20], the mortality at 50 µg/cm2 was 0% in data set [1] and 50 to 100% in data set [2]. In the case of `O=C(CNC(=S)c1ccc(/C=C/C(c2cc(Cl)c(Cl)c(Cl)c2)C(F)(F)F)cc1Br)NCC(F)(F)F` (stereo not drawn) [AC91, (E)-2-(2-bromo-4-(4,4,4-trifluoro-3-(3,4,5-trichlorophenyl)but-1-en-1-yl)phenylthioamido)-N-(2,2,2-trifluoroethyl)acetamide], the mortality at 50 µg/cm2 in data set [1] and in data set [2] was 50 to 100% in each case. Take `C/C(=C\C(c1cc(Cl)cc(Cl)c1)C(F)(F)F)c1ccc(-n2cncn2)cc1` (stereo not drawn) [DC68, (E)-1-(4-(4-(3,5-dichlorophenyl)-5,5,5-trifluoropent-2-en-2-yl)phenyl)-1H-1,2,4-triazole]: the mortality at 50 µg/cm2 in data set [1] and in data set [2] was 50 to 100% in each case. As to `Cc1cc(/C=C/C(c2cc(Cl)cc(Cl)c2)C(F)(F)F)ccc1C(=O)NCC(F)(F)F` (stereo not drawn) [AC6, (E)-4-(3-(3,5-dichlorophenyl)-4,4,4-trifluorobut-1-enyl)-2-methyl-N-(2,2,2-trifluoroethyl)benzamide], the mortality at 50 µg/cm2 was 50 to 100% in data set [1] and 0% in data set [2]. On to `O=C(NCc1ccc(/C=C/C(c2cc(Cl)c(Cl)c(Cl)c2)C(F)(F)F)cc1Cl)N1CCOCC1` (stereo not drawn) [CC34], for which the mortality at 50 µg/cm2 in data set [1] and in data set [2] was 50 to 100% in each case.

For `FC(F)(F)c1cc(C(/C=C/c2ccc(-n3cncn3)cc2)C(F)(F)F)cc(C(F)(F)F)c1` (stereo not drawn) [DC16], the mortality at 50 µg/cm2 in data set [1] and in data set [2] was 50 to 100% each time. As for `CC(C)(C)OC(=O)CNC(=O)c1ccc(/C=C/C(c2cc(Cl)c(Cl)c(Cl)c2)C(F)(F)F)cc1Br` (stereo not drawn) [AC58], the mortality at 50 µg/cm2 in data set [1] and in data set [2] was 50 to 100% throughout. With `FC(F)(F)C(/C=C/c1ccc(-n2cncn2)cc1)c1ccc(Cl)c(Cl)c1` (stereo not drawn) [DC12], the mortality at 50 µg/cm2 in data set [1] and in data set [2] was 50 to 100% each time. As for `N/C(=N\O)c1cc(/C=C/C(c2cc(Cl)cc(Cl)c2)C(F)(F)F)ccc1-n1cncn1` (stereo not drawn) [DC59, (Z)-5-((E)-3-(3,5-dichlorophenyl)-4,4,4-trifluorobut-1-en-1-yl)-N′-hydroxy-2-(1H-1,2,4-triazol-1-yl)benzimidamide], the mortality at 50 µg/cm2 in data set [1] and in data set [2] was 0% each time. `O=C(NC1C[S+]([O-])C1)c1ccc(/C=C/C(c2cc(Cl)c(F)c(Cl)c2)C(F)(F)F)cc1F` (stereo not drawn) [AC87]: the mortality at 50 µg/cm2 in data set [1] and in data set [2] was 50 to 100% throughout. On to `O=C(CC(F)(F)F)NCc1ccc(/C=C/C(c2cc(Cl)cc(Cl)c2)C(F)(F)F)cc1` (stereo not drawn) [CC3], for which the mortality at 50 µg/cm2 in data set [1] and in data set [2] was 50 to 100% throughout. `O=C(CC(F)(F)F)NCC(=O)n1ccc2cc(/C=C/C(c3cc(Cl)c(F)c(Cl)c3)C(F)(F)F)ccc21` (stereo not drawn) [BC13, (E)-N-(2-(5-(3-(3,5-dichloro-4-fluorophenyl)-4,4,4-trifluorobut-1-en-1-yl)-1H-indol-1-yl)-2-oxoethyl)-3,3,3-trifluoropropanamide]: the mortality at 50 µg/cm2 in data set [1] and in data set [2] was 50 to 100% in each case. As for `O=C(NCc1ccc(/C=C/C(c2cc(Cl)c(Cl)c(Cl)c2)C(F)(F)F)cc1Cl)Nc1ccccn1` (stereo not drawn) [CC35], the mortality at 50 µg/cm2 in data set [1] and in data set [2] was 0% in each case. As for `N#Cc1cc(/C=C/C(c2cc(Cl)c(F)c(Cl)c2)C(F)(F)F)ccc1-n1cncn1` (stereo not drawn) [DC35], the mortality at 50 µg/cm2 in data set [1] and in data set [2] was 50 to 100% in each case. As for `Cc1cc(/C=C/C(c2cc(Cl)c(F)c(Cl)c2)C(F)(F)F)ccc1C(=O)NCc1ccc(Cl)nc1` (stereo not drawn) [AC38], the mortality at 50 µg/cm2 in data set [1] and in data set [2] was 50 to 100% throughout. On to `CNC(=S)NC1CCc2cc(/C=C/C(c3cc(Cl)c(Cl)c(Cl)c3)C(F)(F)F)ccc21` (stereo not drawn) [BC1, (E)-1-methyl-3-(5-(4,4,4-trifluoro-3-(3,4,5-trichlorophenyl)-but-1-enyl)-2,3-dihydro-1H-inden-1-yl)thiourea], for which the mortality at 50 µg/cm2 in data set [1] and in data set [2] was 50 to 100% each time. For `O=C(NCc1ccc(Cl)nc1)c1ccc(/C=C/C(c2cc(Cl)cc(Cl)c2)C(F)(F)F)cc1F` (stereo not drawn) [AC49], the mortality at 50 µg/cm2 in data set [1] and in data set [2] was 50 to 100% in each case.
